Data as given in ChEMBL document CHEMBL3217456 (Medchemcomm, 2014).
Calls of active or inactive are those of the source. The rule behind the calls is not given here.

Key:
[1] = biological target: Histamine H2 receptor (Cavia porcellus) (UniProt P47747); assay: Agonist activity at guinea pig histamine H2 receptor assessed as potentiation of histamine-induced response after 30 mins relative to histamine
Histamine H4 receptor [2] = biological target: T1, Histamine H4 receptor (Homo sapiens, UniProt Q9H3N8); assay: Intrinsic activity at human recombinant histamine H4 receptor-RGS19 fusion protein expressed in Sf9 cells coexpressing Galphai2,Gbeta1gamma2 preincubated for 2 mins before [gamma32P]GTP addition measured after 20 mins by steady-state GTPase activity assay relative to histamine
Histamine H3 receptor [3] = biological target: T2, Histamine H3 receptor (Homo sapiens, UniProt Q9Y5N1); assay: (§1) Intrinsic activity at human recombinant histamine H3 receptor expressed in Sf9 cells coexpressing Galphai2,Gbeta1gamma2 and RGS4 preincubated for 2 mins before [gamma32P]GTP addition measured after 20 mins by steady-state GTPase activity assay relative to histamine
T2 sequence (Q9Y5N1 whole entry, the tested form may be a part): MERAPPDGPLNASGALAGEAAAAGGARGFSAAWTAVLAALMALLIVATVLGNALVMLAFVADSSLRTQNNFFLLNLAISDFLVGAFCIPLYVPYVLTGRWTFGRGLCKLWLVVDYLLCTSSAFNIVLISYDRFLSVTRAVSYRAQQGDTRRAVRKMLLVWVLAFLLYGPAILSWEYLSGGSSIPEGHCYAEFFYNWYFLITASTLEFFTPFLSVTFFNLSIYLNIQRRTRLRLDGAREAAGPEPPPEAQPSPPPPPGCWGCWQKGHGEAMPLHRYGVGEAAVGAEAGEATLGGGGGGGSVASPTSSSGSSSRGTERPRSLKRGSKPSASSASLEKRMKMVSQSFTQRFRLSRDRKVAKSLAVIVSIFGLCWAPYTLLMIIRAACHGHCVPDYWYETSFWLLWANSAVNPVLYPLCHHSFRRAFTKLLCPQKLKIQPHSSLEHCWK

Histamine H2 receptor [4] = biological target: T3, Histamine H2 receptor (Homo sapiens, UniProt P25021); assay: Intrinsic activity at human recombinant histamine H2 receptor-Gsalphas fusion protein expressed in Sf9 cells preincubated for 2 mins before [gamma32P]GTP addition measured after 20 mins by steady-state GTPase activity assay relative to histamine
T3 sequence (P25021 whole entry, the tested form may be a part): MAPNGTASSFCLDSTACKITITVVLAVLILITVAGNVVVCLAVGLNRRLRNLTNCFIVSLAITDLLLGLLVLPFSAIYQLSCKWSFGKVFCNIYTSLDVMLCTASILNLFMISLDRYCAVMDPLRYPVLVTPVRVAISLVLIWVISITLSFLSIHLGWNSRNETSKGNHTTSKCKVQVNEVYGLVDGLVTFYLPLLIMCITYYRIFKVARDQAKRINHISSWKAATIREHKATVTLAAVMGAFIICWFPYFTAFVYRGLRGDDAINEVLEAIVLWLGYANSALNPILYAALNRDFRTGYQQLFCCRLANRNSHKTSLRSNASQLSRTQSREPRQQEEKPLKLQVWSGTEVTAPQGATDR

Histamine H2 receptor [5] = biological target: T4, Histamine H2 receptor (Cavia porcellus, UniProt P47747); assay: (§2) Antagonist activity at guinea pig histamine H2 receptor assessed as inhibition of histamine-induced response after 30 mins; settings: read-out: pA2 (converted)
T4 sequence (P47747 whole entry): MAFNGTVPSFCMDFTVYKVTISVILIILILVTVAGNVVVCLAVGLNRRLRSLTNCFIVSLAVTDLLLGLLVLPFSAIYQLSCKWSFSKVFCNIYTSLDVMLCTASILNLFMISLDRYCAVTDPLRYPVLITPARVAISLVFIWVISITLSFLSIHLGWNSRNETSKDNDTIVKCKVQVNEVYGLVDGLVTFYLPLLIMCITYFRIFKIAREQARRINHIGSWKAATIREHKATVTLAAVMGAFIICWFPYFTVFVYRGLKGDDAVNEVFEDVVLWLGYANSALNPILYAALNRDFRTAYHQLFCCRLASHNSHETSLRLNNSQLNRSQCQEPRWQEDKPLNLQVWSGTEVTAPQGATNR

[6] = biological target: Histamine H2 receptor (Cavia porcellus) (UniProt P47747); assay: Antagonist activity at guinea pig histamine H2 receptor assessed as reduction of histamine-induced maximal response after 30 mins
[7] = biological target: Histamine H2 receptor (Cavia porcellus) (UniProt P47747); assay: Agonist activity at guinea pig histamine H2 receptor assessed as potentiation of histamine-induced response at 30 uM after 30 mins relative to histamine
Histamine H1 receptor = Histamine H1 receptor (Cavia porcellus, UniProt P31389); assay: Antagonist activity at guinea pig ileum histamine H1 receptor assessed as inhibition of histamine-induced response after 10 to 15 mins; type: tissue-based; settings: read-out: pA2 (converted)
Chain of Histamine H1 receptor (P31389 whole entry): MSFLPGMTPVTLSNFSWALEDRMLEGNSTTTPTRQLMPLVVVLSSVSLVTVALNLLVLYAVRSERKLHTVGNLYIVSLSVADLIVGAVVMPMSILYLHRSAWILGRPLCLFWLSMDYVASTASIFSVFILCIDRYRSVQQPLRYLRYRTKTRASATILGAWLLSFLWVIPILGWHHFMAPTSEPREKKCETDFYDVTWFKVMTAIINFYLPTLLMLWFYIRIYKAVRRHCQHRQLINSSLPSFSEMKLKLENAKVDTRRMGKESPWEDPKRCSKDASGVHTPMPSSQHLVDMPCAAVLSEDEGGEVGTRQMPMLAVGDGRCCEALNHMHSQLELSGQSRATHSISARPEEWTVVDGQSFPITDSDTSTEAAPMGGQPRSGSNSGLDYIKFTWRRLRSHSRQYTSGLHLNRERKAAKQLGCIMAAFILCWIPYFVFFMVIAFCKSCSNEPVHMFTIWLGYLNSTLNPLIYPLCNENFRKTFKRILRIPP

Histamine H3 receptor [8] = biological target: T2, Histamine H3 receptor; assay: as §1, with “Antagonist” for “Intrinsic”, “RGS4 assessed as inhibition of histamine-induced […] hydrolysis” for “RGS4”, “assay” for “assay relative to histamine”; type: functional
Histamine H2 receptor [9] = biological target: T3, Histamine H2 receptor; assay: (§3) Antagonist activity at human recombinant histamine H2 receptor-Gsalphas fusion protein expressed in Sf9 cells assessed as inhibition of histamine-induced […] hydrolysis preincubated for 2 mins before [gamma32P]GTP addition measured after 20 mins by steady-state GTPase activity assay; type: functional
[10] = biological target: Histamine H1 receptor (Homo sapiens) (UniProt P35367); assay: Antagonist activity at human recombinant histamine H1 receptor expressed in Sf9 cells coexpressing RGS4 assessed as inhibition of histamine-induced […] hydrolysis preincubated for 2 mins before [gamma32P]GTP addition measured after 20 mins by steady-state GTPase activity assay; type: functional
Chain of Histamine H1 receptor (Homo sapiens) (P35367 whole entry, the tested form may be a part): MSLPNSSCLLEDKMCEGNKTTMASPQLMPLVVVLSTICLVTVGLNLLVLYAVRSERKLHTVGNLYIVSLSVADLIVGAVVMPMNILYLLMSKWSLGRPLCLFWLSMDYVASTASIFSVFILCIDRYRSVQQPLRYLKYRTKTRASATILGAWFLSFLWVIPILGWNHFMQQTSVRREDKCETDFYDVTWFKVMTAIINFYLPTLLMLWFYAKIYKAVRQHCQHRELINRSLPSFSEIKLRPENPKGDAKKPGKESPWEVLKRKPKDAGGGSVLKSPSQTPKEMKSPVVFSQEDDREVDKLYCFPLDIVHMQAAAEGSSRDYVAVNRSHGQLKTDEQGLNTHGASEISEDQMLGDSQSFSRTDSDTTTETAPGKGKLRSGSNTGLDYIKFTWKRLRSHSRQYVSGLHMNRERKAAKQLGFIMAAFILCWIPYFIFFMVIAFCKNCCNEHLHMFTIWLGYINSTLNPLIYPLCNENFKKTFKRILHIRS

Histamine H4 receptor [11] = biological target: T1, Histamine H4 receptor; assay: Agonist activity at human recombinant histamine H4 receptor-RGS19 fusion protein expressed in Sf9 cells coexpressing Galphai2,Gbeta1gamma2 preincubated for 2 mins before [gamma32P]GTP addition measured after 20 mins by steady-state GTPase activity assay
Histamine H4 receptor [12] = biological target: T1, Histamine H4 receptor; assay: Agonist activity at human recombinant histamine H4 receptor-RGS19 fusion protein expressed in Sf9 cells coexpressing Galphai2,Gbeta1gamma2 assessed as [35S]GTPgammaS binding after 90 mins by liquid scintillation counting; type: functional
Histamine H2 receptor [13] = biological target: T3, Histamine H2 receptor; assay: Agonist activity at human recombinant histamine H2 receptor-Gsalphas fusion protein expressed in Sf9 cells assessed as [35S]GTPgammaS binding after 90 mins by liquid scintillation counting; type: functional
Histamine H3 receptor [14] = biological target: T2, Histamine H3 receptor; assay: Agonist activity at human recombinant histamine H3 receptor expressed in Sf9 cells coexpressing Galphai2,Gbeta1gamma2 and RGS4 assessed as [35S]GTPgammaS binding after 90 mins by liquid scintillation counting; type: functional
[15] = biological target: Histamine H1 receptor (Homo sapiens) (UniProt P35367); settings: Sf9
Histamine H2 receptor [16] = biological target: T4, Histamine H2 receptor; assay: Agonist activity at guinea pig atrium histamine H2 receptor assessed as potentiation of histamine-induced response after 30 mins; set-up: species or system Cardiac atrium
Histamine H4 receptor [17] = biological target: T1, Histamine H4 receptor; assay: as §3, with “H4 receptor-RGS19” for “H2 receptor-Gsalphas”, “cells coexpressing Galphai2,Gbeta1gamma2” for “cells”; type: functional
[18] = biological target: Histamine H1 receptor (Homo sapiens) (UniProt P35367); assay: Intrinsic activity at human recombinant histamine H1 receptor expressed in Sf9 cells coexpressing RGS4 preincubated for 2 mins before [gamma32P]GTP addition measured after 20 mins by steady-state GTPase activity assay relative to histamine
[19] = biological target: Histamine H2 receptor (Cavia porcellus) (UniProt P47747); assay: Agonist activity at guinea pig histamine H2 receptor assessed as potentiation of histamine-induced response at 10 uM after 30 mins relative to histamine
[20] = biological target: Histamine H2 receptor (Cavia porcellus) (UniProt P47747); assay: as §2
Histamine H2 receptor [21] = biological target: T3, Histamine H2 receptor; assay: Agonist activity at human recombinant histamine H2 receptor-Gsalphas fusion protein expressed in Sf9 cells preincubated for 2 mins before [gamma32P]GTP addition measured after 20 mins by steady-state GTPase activity assay
Histamine H2 receptor [22] = biological target: T4, Histamine H2 receptor; assay: Agonist activity at guinea pig histamine H2 receptor assessed as potentiation of histamine-induced response at after 30 mins

Chain of Histamine H2 receptor (Cavia porcellus) (P47747 whole entry, the tested form may be a part): as the sequence (P47747 whole entry) above

SMILES	Efficacy [1]	Intrinsic activity (Histamine H3 receptor [3])	Intrinsic activity (Histamine H2 receptor [4])	Kb (Histamine H2 receptor [5])	Kb (Histamine H1 receptor)	pKb (Histamine H3 receptor [8])	pKb (Histamine H2 receptor [9])	pKb [10]	pKb (Histamine H4 receptor [17])	Intrinsic activity [18]	other results
Cc1nc(N)sc1CCCNC(=N)NC(=O)CC(C)c1ccccc1 (stereo not given)	–	–	–	> 31600 nM	–	–	–	–	–	–	pD'2 [6]: < 4.5
CN/C(=N\C#N)NCCCCNc1nc(N)n[nH]1	–	–	–	–	–	–	–	–	–	–	pEC50 (Histamine H4 receptor [12]): inactive; pEC50 (Histamine H2 receptor [13]): inactive; pEC50 (Histamine H3 receptor [14]): inactive; pEC50 [15]: inactive
CC(CC(=O)/N=C(\N)NCCCc1ccc(CN(C)C)o1)c1ccccc1 (stereo not given)	0%	-0.64	-0.12	–	3020 nM	5.92	6.52	< 5	< 5	0.04	Emax [19]: 68%
CC(CC(=O)/N=C(\N)NCCCc1ccncc1)c1ccccc1 (stereo not given)	–	-0.07	0	19100 nM	–	< 5	5.54	< 5	< 5	0.12	pD2 [20]: 4.54; pD'2 [6]: 4.54
CC(CC(=O)/N=C(\N)NCCCc1ncn[nH]1)c1ccccc1 (stereo not given)	100%	-0.03	0.66	479 nM	1480 nM	< 5	–	< 5	–	–	pEC50 (Histamine H4 receptor [11]): inactive; EC50 (Histamine H2 receptor [21]): 741 nM; EC50 (Histamine H2 receptor [22]): 100 nM
N/C(=N\C(=O)CC(c1ccccc1)c1ccccc1)NCCCn1ccnc1	–	-0.07	-0.07	–	2340 nM	< 5	5.82	< 5	< 5	0.01	–
CN/C(=N/C#N)NCCCCc1cnn[nH]1	–	–	–	–	–	–	–	–	–	–	pEC50 (Histamine H4 receptor [12]): inactive; pEC50 (Histamine H2 receptor [13]): inactive; pEC50 (Histamine H3 receptor [14]): inactive; pEC50 [15]: inactive

Further lines, with some results ahead:

Efficacy [1]	Intrinsic activity (Histamine H3 receptor [3])	Intrinsic activity (Histamine H2 receptor [4])	Kb (Histamine H2 receptor [5])	Kb (Histamine H1 receptor)	pKb (Histamine H3 receptor [8])	pKb (Histamine H2 receptor [9])	pKb [10]	pKb (Histamine H4 receptor [17])	Intrinsic activity [18]	SMILES	other results
99%	0.24	0.87	–	–	–	–	–	–	–	CC(CC(=O)/N=C(\N)NCCCc1c[nH]cn1)c1ccccc1 (stereo not given)	Intrinsic activity (Histamine H4 receptor [2]): 0.84
–	-0.05	–	> 31600 nM	1120 nM	< 5	< 5	< 5	–	–	CC(CC(=O)/N=C(\N)NCCCn1ccnc1)c1ccccc1 (stereo not given)	Emax [7]: 69%; Intrinsic activity (Histamine H4 receptor [2]): 0.77; EC50 (Histamine H4 receptor [11]): 1000 nM; pD'2 [6]: 4.16
41%	-0.02	0.08	–	2570 nM	< 5	5.42	5.06	< 5	0.06	N/C(=N\C(=O)CC(c1ccccc1)c1ccccc1)NCCCc1cn[nH]c1	EC50 (Histamine H2 receptor [16]): 363 nM
–	-0.33	-0.04	–	–	5.47	6.13	5.07	5.85	0.04	N/C(=N\C(=O)CC(c1ccccc1)c1ccccc1)NCCCc1ncc[nH]1	Intrinsic activity (Histamine H4 receptor [2]): -0.08
